Here are results for 6 compounds from patent publication US11357873B2, “Chiral cyclen compounds and their uses” (THE HONG KONG POLYTECHNIC UNIVERSITY, priority 2016, dated 2022).

Common to all, as to assay type: physicochemical
The nature of series [1]: Absorption and photoluminescence (quantum yield, lifetime, q). The arrangement: λabs(max): unit not given here. The settings on record: for R, I(5D0 → 7F2)/I(5D0 → 7F1): asymmetry ratio, 10 in MeOH; for R, I(5D0 → 7F2)/I(5D0 → 7F1) / λabs(max): room temperature, 11 in DMSO; for q (Parker's) / q (Horrocks'): from lifetimes in H2O and D2O; for q (Parker's): first value of cell; for q (Horrocks'): second value of cell; for ΦEuEu (%): intrinsic quantum yield, calculated value; for τD2O/MeOD / τH2O/MeOH: luminescence lifetime, 5D0 → 7F2 transition; for τD2O/MeOD: D2O (MeOD for 10); for τH2O/MeOH: H2O (MeOH for 10); for ΦDMSO (%): luminescence quantum yield in DMSO; for ΦH2O/MeOH (%): luminescence quantum yield relative to quinine sulfate in 0.1M H2SO4, H2O (MeOH for 10, insoluble in H2O); for ΦHEPES (%): luminescence quantum yield, 0.1M HEPES buffer, pH 7.4; for λabs(max): 10 measured in MeOH; for ηsens (%): sensitization efficiency, calculated according to ref 61. The protocol: (§1) Absorption spectra of complexes were measured with HP UV-8453 spectrophotometer. Steady-state room temperature photoluminescence measurements were performed with an Edinburgh Instrument FLSP920 spectrophotometer equipped with a Xe900 continuous xenon lamp, μF920 microsecond flash lamp and a single photon counting photomultiplier tube. Spectra were corrected with the bundled F900 software. Solution-state measurements were conducted using quartz curettes of 10 mm path length. CPL measurements were conducted on a custom built spectrometer^63 (in Durham University) consisting of a laser driven light source (Energetiq EQ-99 LDLS, spectral range 170 to 2100 nm) coupled to an Acton SP2150 monochromator (600 g/nm, 300 nm Blaze) that allows excitation wavelengths to be selected with a 6 nm FWHM band-pass. The collection of the emitted light was facilitated (90° angle set up, 1 cm path length quartz curette) by a Lock-In Amplifier (Hinds Instruments Signaloc 2100) and Photoelastic Modulator (Hinds Instruments PEM-90). The differentiated light was focused onto an Acton SP2150 monochromator (1200 g/nm, 500 nm Blaze) equipped with a high sensitivity cooled Photo Multiplier Tube (H10723-20 Extended red-multialkali PMT based photosensor (5V)). Spectra were recorded using a 5 spectral average sequence in the range of 570-720 nm with 0.5 nm spectral intervals and 500 μs integration time. The recorded CPL spectrum underwent a 25% Fourier transformation smoothening protocol using Origin 8.0 Software (Origin Labs) to enhance appearance (all calculations were carried out using raw spectral data).
The shift in absorption is caused by electronic communication between the electropositive lanthanide center and the chromophore. […] These are not observed for 11, however, as we believe the steric effect of the planar phenyl ring of the benzyl group could not be alleviated by appropriate rotation, whereas that of the isobutyl group could.
The luminescence quantum yields of the complexes are decent in water and HEPES solution, although they are much higher in DMSO, due to the nonradiative quenching by O—H oscillators of water molecules in the second coordination sphere (Table 6). The intrinsic quantum yields^61—a calculated value evaluating the quantum yield of Eu(III) via direct metal excitation—of the complexes are calculated, and, as expected, the values are very similar, except for 10. The higher value corroborates with the shift in absorption maximum, for which we believe the reason is due to a shorter europium—chromophore distance and better interaction. On the other hand, the sensitization efficiencies of the complexes vary. […] The relatively remarkable ηsens of 13 is attributed to its structural rigidity, as both the tetraaza backbone and the acetate arms are modified with a chrial substituent, i.e., double chirality. The double chirality is also attributed for the increase in luminescence quantum yield compared to that of 12a/12b.

Series [2] can be described thus: Circularly polarized luminescence (CPL), dissymmetry factor glum. The settings on record: for glum ΔJ = 1 (λ) DMSO / glum ΔJ = 3 (λ) DMSO / glum ΔJ = 1 (λ) H2O / glum ΔJ = 3 (λ) H2O: wavelength in parentheses in the cell. The protocol: as §1, with “Steady-state” for “Absorption spectra of complexes were measured with HP UV-8453 spectrophotometer. Steady-state”, “time.” for “time. The recorded CPL spectrum underwent a 25% Fourier transformation smoothening protocol using Origin 8.0 Software (Origin Labs) to enhance appearance (all calculations were carried out using raw spectral data).”

Series [3] is described as follows: Relaxivity (r1, r2) measurement of Gd(III) complexes in water, BSA and human plasma. On the set-up: r1 Human Plasma (1.5 T): unit not given beside the values. The following applies: 1.5 T, 37° C. The protocol:
This is very important because the huge difference in the inner-sphere coordinated water exchange rate between the two isomers is a key factor for applications, for example, as MRI contrast agents. To show their potential value, the two diastereomers of [GdL2]^− ([GdL2A]^− and [GdL2B]^−) were separated and their relaxivities were measured. The relaxivities of [GdL1]^−, [GdL2]^−, [GdL2A]^−, [GdL2B]^− and [GdDOTA]^− in water at different magnetic strengths (1.5 T and 11.7 T) were compared, with or without the presence of BSA and human plasma (1.5 T) (Table 1). It is clearly seen that the complexes of [GdL1]^−, [GdL2A]^− and [GdL2B]^− have relaxivity properties similar to that of the [GdDOTA]^− complex.

Each structure is given as a SMILES string.

Consider `COc1cc(OC)c(C#Cc2cc(CN3CCN(C(C)C(=O)[O-])CCN(C(C)C(=O)[O-])CCN(C(C)C(=O)[O-])CC3)nc(P(C)(=O)[O-])c2)c(OC)c1.[Eu+3]` (single isomer, unassigned) [Complex 12a], for which, in series [1] (listed as 12a), the “R, I(5D0 → 7F2)/I(5D0 → 7F1)” value turned out to be 2.74; the “q (Parker's)” value was 0.07; the “q (Horrocks')” value is given as 0.01; the “ΦEuEu (%)” value was 26.6%. For the same compound, in series [1] (listed as 12a), the “τD2O/MeOD” value worked out at 1.70 ms, the “τH2O/MeOH” value was determined as 1.12 ms, the “ΦDMSO (%)” value is on record as 46.4% and the “ΦH2O/MeOH (%)” value is on record as 12.7%. In series [1] (listed as 12a), the “ΦHEPES (%)” value worked out at 12.4%, the “λabs(max)” value came to 352 and the “ηsens (%)” value is reported as 47.0%. Further, in series [2] (listed as 12a), the “glum ΔJ = 1 (λ) DMSO” value is given as −0.04 (591), the “glum ΔJ = 3 (λ) DMSO” value is reported as −0.04 (657), the “glum ΔJ = 1 (λ) H2O” value was −0.03 (588) and the “glum ΔJ = 3 (λ) H2O” value is on record as −0.05 (653).
On to `COc1cc(OC)c(C#Cc2cc(CN3CCN(C(C)C(=O)[O-])CCN(C(C)C(=O)[O-])CCN(C(C)C(=O)[O-])CC3)nc(P(C)(=O)[O-])c2)c(OC)c1.[Eu+3]` (single isomer, unassigned) [Complex 12b], for which, in series [1] (listed as 12b), the “R, I(5D0 → 7F2)/I(5D0 → 7F1)” value came to 2.41; the “q (Parker's)” value is recorded as 0.11; the “q (Horrocks')” value amounted to 0.03; the “ΦEuEu (%)” value is reported as 24.9%. In series [1] (listed as 12b), the “τD2O/MeOD” value is reported as 1.77 ms, the “τH2O/MeOH” value was 1.04 ms, the “ΦDMSO (%)” value amounted to 44.1% and the “ΦH2O/MeOH (%)” value worked out at 10.2%. Besides, in series [1] (listed as 12b), the “ΦHEPES (%)” value was 9.8%, the “λabs(max)” value is reported as 355 and the “ηsens (%)” value is 41.0%. Further, in series [2] (listed as 12b), the “glum ΔJ = 1 (λ) DMSO” value is −0.11 (591), the “glum ΔJ = 3 (λ) DMSO” value was −0.10 (653), the “glum ΔJ = 1 (λ) H2O” value is recorded as −0.04 (591) and the “glum ΔJ = 3 (λ) H2O” value is −0.11 (653).
With `CC[C@H]1CN(CC(=O)[O-])[C@@H](CC)CN(CC(=O)[O-])[C@@H](CC)CN(CC(=O)[O-])[C@@H](CC)CN1CC(=O)[O-].[Gd+3]` (single isomer, unassigned) [[GdL2A]^−], the “r1 4.5 w/v BSA (1.5 T)” value in series [3] (4.5 w/v BSA) is given as 3.9. The “r1 Human Plasma (1.5 T)” value in series [3] (human plasma) is 2.9. Moreover, in series [3] (water), the “r1 Water (1.5 T)” value is recorded as 3.0.
On to `COc1cc(OC)c(C#Cc2cc(CN3CCN(CC(=O)[O-])CCN(CC(=O)[O-])CCN(CC(=O)[O-])CC3)nc(P(C)(=O)[O-])c2)c(OC)c1.[Eu+3]` [Complex 7], for which, in series [1], the “R, I(5D0 → 7F2)/I(5D0 → 7F1)” value came out at 2.52; the “q (Parker's)” value was 0.06; the “q (Horrocks')” value is 0.01; the “ΦEuEu (%)” value is given as 23.6%. For the same compound, in series [1], the “τD2O/MeOD” value came out at 1.44 ms, the “τH2O/MeOH” value came out at 1.01 ms, the “ΦDMSO (%)” value is 47.0% and the “ΦH2O/MeOH (%)” value stood at 7.6%. In series [1], the “ΦHEPES (%)” value stood at 6.9%, the “λabs(max)” value is listed as 353 and the “ηsens (%)” value is 32.3%.
`CC[C@H]1CN(CC(=O)[O-])[C@@H](CC)CN(Cc2cc(C#Cc3c(OC)cc(OC)cc3OC)cc(P(C)(=O)[O-])n2)[C@@H](CC)CN(CC(=O)[O-])[C@@H](CC)CN1CC(=O)[O-].[Eu+3]` [Complex 8]: in series [1], the “R, I(5D0 → 7F2)/I(5D0 → 7F1)” value was determined as 2.43; the “q (Parker's)” value is 0.10; the “q (Horrocks')” value is listed as 0.02; the “ΦEuEu (%)” value is recorded as 26.0%. Further, in series [1], the “τD2O/MeOD” value amounted to 1.76 ms, the “τH2O/MeOH” value is recorded as 1.12 ms, the “ΦDMSO (%)” value was 50.0% and the “ΦH2O/MeOH (%)” value stood at 14.0%. In series [1], the “ΦHEPES (%)” value is 14.0%, the “λabs(max)” value came out at 356 and the “ηsens (%)” value is 53.8%. In series [2], the “glum ΔJ = 1 (λ) DMSO” value is −0.18 (591), the “glum ΔJ = 3 (λ) DMSO” value was “+0.17 (657)”, the “glum ΔJ = 1 (λ) H2O” value is reported as −0.11 (591) and the “glum ΔJ = 3 (λ) H2O” value is reported as −0.28 (653).
`CCC1CN(C(C)C(=O)[O-])C(CC)CN(C(C)C(=O)[O-])C(CC)CN(C(C)C(=O)[O-])C(CC)CN1Cc1cc(C#Cc2c(OC)cc(OC)cc2OC)cc(P(C)(=O)[O-])n1.[Eu+3]` (centres unmarked) [Complex 13]: in series [1], the “R, I(5D0 → 7F2)/I(5D0 → 7F1)” value was found to be 2.66; the “q (Parker's)” value is listed as 0.00; the “q (Horrocks')” value came out at 0.06; the “ΦEuEu (%)” value was 30.2%. In series [1], the “τD2O/MeOD” value is on record as 1.83 ms, the “τH2O/MeOH” value is on record as 1.25 ms, the “ΦDMSO (%)” value is 49.7% and the “ΦH2O/MeOH (%)” value came out at 21.9%. In addition, in series [1], the “ΦHEPES (%)” value came to 20.9%, the “λabs(max)” value is recorded as 356 and the “ηsens (%)” value was 72.6%. Moreover, in series [2], the “glum ΔJ = 1 (λ) DMSO” value is −0.17 (588), the “glum ΔJ = 3 (λ) DMSO” value is given as −0.29 (657) and the “glum ΔJ = 3 (λ) H2O” value is on record as −0.33 (652). Also, the “absolute glum 589 nm” value in series [2] (aqueous solution) is 0.23.
